In ChEMBL document CHEMBL1201861, “Genomics of Drug Sensitity in Cancer screening data, Wellcome Trust Sanger Institute”:

How the values were obtained:
Test in all cases: cells
COR-L23 = assay type: functional, cell-based; conditions: Homo sapiens;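 also: cell viability assay measuring how strongly compounds suppress growth of COR-L23 cells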
Description: SANGER: Inhibition of human COR-L23 cell growth in a cell viability assay.

CaR-1 = assay type: functional, cell-based; conditions: Homo sapiens;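 also: growth inhibition of human CaR-1 cancer cells, read out with a cell viability assay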
Description: SANGER: Inhibition of human CaR-1 cell growth in a cell viability assay.

DK-MG = assay type: functional, cell-based; conditions: Homo sapiens;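 also: growth inhibition of DK-MG cells, read out with a cell viability assay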
Description: SANGER: Inhibition of human DK-MG cell growth in a cell viability assay.

EC-GI-10 = assay type: functional, cell-based, Homo sapiens; conditions: Homo sapiens, EC-GI-10
Description: SANGER: Inhibition of human EC-GI-10 cell growth in a cell viability assay.

EW-24 = assay type: functional, cell-based, Homo sapiens; conditions: Homo sapiens, EW-24;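 also: human EW-24 cancer cell line, growth inhibition read out via a cell viability assay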
Description: SANGER: Inhibition of human EW-24 cell growth in a cell viability assay.

GP5d = assay type: functional, cell-based; conditions: Homo sapiens;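 also: growth inhibition of human GP5d cells, read out with a cell viability assay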
Description: SANGER: Inhibition of human GP5d cell growth in a cell viability assay.

HCC38 = assay type: functional, cell-based; conditions: Homo sapiens;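 also: cell viability assay on the human HCC38 cell line, with IC50 marking the concentration that inhibits cell growth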
Description: SANGER: Inhibition of human HCC38 cell growth in a cell viability assay.

HCT-15 = assay type: functional, cell-based; conditions: Homo sapiens;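 also: cell viability readout, IC50 reflecting suppression of HCT-15 cell growth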
Description: SANGER: Inhibition of human HCT-15 cell growth in a cell viability assay.

HEC-1 = assay type: functional, cell-based; conditions: Homo sapiens;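 also: growth inhibition of the cell line, read out with a cell viability assay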
Description: SANGER: Inhibition of human HEC-1 cell growth in a cell viability assay.

HOS = assay type: functional, cell-based; conditions: Homo sapiens;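 also: growth inhibition of human HOS cells, read out with a cell viability assay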
Description: SANGER: Inhibition of human HOS cell growth in a cell viability assay.

HT1197 = assay type: functional, cell-based, HT-1197; conditions: Homo sapiens
Description: SANGER: Inhibition of human HT-1197 cell growth in a cell viability assay.

HuO9 = assay type: functional, cell-based; conditions: Homo sapiens;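 also: growth inhibition of HuO9 cells, read out with a cell viability assay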
Description: SANGER: Inhibition of human HuO9 cell growth in a cell viability assay.

KYSE-140 = assay type: functional, cell-based; conditions: Homo sapiens;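 also: cell viability assay measuring growth inhibition in human KYSE-140 cells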
Description: SANGER: Inhibition of human KYSE-140 cell growth in a cell viability assay.

KYSE-450 = assay type: functional, cell-based; conditions: Homo sapiens;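 also: cell growth inhibition measured by a viability assay in human KYSE-450 cells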
Description: SANGER: Inhibition of human KYSE-450 cell growth in a cell viability assay.

KYSE-520 cell line = assay type: functional, cell-based; conditions: Homo sapiens;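 also: growth inhibition of human KYSE-520 cells, read out with a viability assay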
Description: SANGER: Inhibition of human KYSE-520 cell growth in a cell viability assay.

KYSE-70 cell line = assay type: functional, cell-based; conditions: Homo sapiens;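 also: cell viability assay read-out, with IC50 expressing suppression of KYSE-70 cell growth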
Description: SANGER: Inhibition of human KYSE-70 cell growth in a cell viability assay.

LU-99A = assay type: functional, cell-based; conditions: Homo sapiens;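 also: growth inhibition of LU-99A cells, read out with a cell viability assay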
Description: SANGER: Inhibition of human LU-99A cell growth in a cell viability assay.

MOLT-13 = assay type: functional, cell-based; conditions: Homo sapiens;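 also: IC50 for suppression of MOLT-13 cell growth, read out with a cell viability assay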
Description: SANGER: Inhibition of human MOLT-13 cell growth in a cell viability assay.

NB17 = assay type: functional, cell-based, Homo sapiens; conditions: Homo sapiens, NB17;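 also: growth inhibition of NB17 cells, read out with a cell viability assay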
Description: SANGER: Inhibition of human NB17 cell growth in a cell viability assay.

NCI-H2087 = assay type: functional, cell-based; conditions: Homo sapiens;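 also: growth inhibition determined with a cell viability readout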
Description: SANGER: Inhibition of human NCI-H2087 cell growth in a cell viability assay.

NCI-H727 = assay type: functional, cell-based; conditions: Homo sapiens;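 also: growth inhibition of human NCI-H727 cells, read out with a cell viability assay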
Description: SANGER: Inhibition of human NCI-H727 cell growth in a cell viability assay.

P12-Ichikawa = assay type: functional, cell-based; conditions: Homo sapiens
PC-14 = assay type: functional, cell-based; conditions: Homo sapiens;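 also: cell viability assay measuring inhibition of PC-14 cell growth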
Description: SANGER: Inhibition of human PC-14 cell growth in a cell viability assay.

PFSK-1 = assay type: functional, cell-based; conditions: Homo sapiens;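 also: cell viability assay measuring how strongly compounds suppress growth of human PFSK-1 cells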
Description: SANGER: Inhibition of human PFSK-1 cell growth in a cell viability assay.

RERF-LC-MS = assay type: functional, cell-based; conditions: Homo sapiens;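 also: growth inhibition of human RERF-LC-MS cells, read out by a cell viability assay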
Description: SANGER: Inhibition of human RERF-LC-MS cell growth in a cell viability assay.

RVH-421 = assay type: functional, cell-based; conditions: Homo sapiens
Description: SANGER: Inhibition of human RVH-421 cell growth in a cell viability assay.

SCC-4 = assay type: functional, cell-based; conditions: Homo sapiens;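 also: growth inhibition of human SCC-4 cells, read out as cell viability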
Description: SANGER: Inhibition of human SCC-4 cell growth in a cell viability assay.

SCC-9 = assay type: functional, cell-based; conditions: Homo sapiens;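 also: Read-out is a cell viability assay, with values giving inhibition of cell growth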
Description: SANGER: Inhibition of human SCC-9 cell growth in a cell viability assay.

SK-MEL-28 = assay type: functional, cell-based; conditions: Homo sapiens;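 also: growth inhibition of human SK-MEL-28 cells, read out with a cell viability assay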
Description: SANGER: Inhibition of human SK-MEL-28 cell growth in a cell viability assay.

SK-MEL-30 = assay type: functional, cell-based; conditions: Homo sapiens;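 also: growth inhibition of SK-MEL-30 cells, determined with a cell viability assay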
Description: SANGER: Inhibition of human SK-MEL-30 cell growth in a cell viability assay.

SNU-423 = assay type: functional, cell-based; conditions: Homo sapiens
Description: SANGER: Inhibition of human SNU-423 cell growth in a cell viability assay.

SNU-449 = assay type: functional, cell-based; conditions: Homo sapiens
Description: SANGER: Inhibition of human SNU-449 cell growth in a cell viability assay.

SW13 = assay type: functional, cell-based; conditions: Homo sapiens;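 also: IC50 is inhibition of SW13 cell growth, read out with a cell viability assay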
Description: SANGER: Inhibition of human SW13 cell growth in a cell viability assay.

SW948 = assay type: functional, cell-based; conditions: Homo sapiens;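 also: growth inhibition of SW948 cells, read out with a cell viability assay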
Description: SANGER: Inhibition of human SW948 cell growth in a cell viability assay.

8305C = assay type: functional, cell-based; conditions: Homo sapiens
Description: SANGER: Inhibition of human 8305C cell growth in a cell viability assay.

A-375 = assay type: functional, cell-based; conditions: Homo sapiens;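 also: growth inhibition of A375 cells, read out with a cell viability assay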
Description: SANGER: Inhibition of human A375 cell growth in a cell viability assay.

A-431 = assay type: functional, cell-based; conditions: Homo sapiens;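 also: growth inhibition of A-431 cells, determined with a cell viability read-out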
Description: SANGER: Inhibition of human A431 cell growth in a cell viability assay.

AU565 = assay type: functional, cell-based; conditions: Homo sapiens;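 also: cell viability assay measuring growth inhibition of human AU565 cells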
Description: SANGER: Inhibition of human AU565 cell growth in a cell viability assay.

BT-20 = assay type: functional, cell-based; conditions: Homo sapiens;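 also: cell viability assay measuring suppression of growth in human BT-20 cells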
Description: SANGER: Inhibition of human BT-20 cell growth in a cell viability assay.

C-33-A = assay type: functional, cell-based; conditions: Homo sapiens;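 also: cell viability assay measuring growth inhibition of C-33-A cells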
Description: SANGER: Inhibition of human C-33-A cell growth in a cell viability assay.

CAL-27 = assay type: functional, cell-based; conditions: Homo sapiens;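 also: Viability-based readout, IC50 reflecting inhibition of CAL-27 cell growth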
Description: SANGER: Inhibition of human CAL-27 cell growth in a cell viability assay.

CAL-39 = assay type: functional, cell-based; conditions: Homo sapiens;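 also: cell viability assay measuring growth inhibition of CAL-39 cells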
Description: SANGER: Inhibition of human CAL-39 cell growth in a cell viability assay.

CHL-1 = assay type: functional, cell-based; conditions: Homo sapiens;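 also: cell growth inhibition, read out with a cell viability assay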
Description: SANGER: Inhibition of human CHL-1 cell growth in a cell viability assay.

For `NC(=O)Nc1cc(-c2cccc(F)c2)sc1C(=O)N[C@H]1CCCNC1` [AZD-7762], the IC50 (COR-L23) was 403 nM, the IC50 (CaR-1) was 1870 nM and the IC50 (DK-MG) was > 2000 nM. For the same compound, the IC50 (EC-GI-10) was 1780 nM, the IC50 (EW-24) was 289 nM and the IC50 (GP5d) was 412 nM. The IC50 (HCC38) was 750 nM, the IC50 (HCT-15) was > 2000 nM and the IC50 (HEC-1) was 814 nM. The IC50 (HOS) was 880 nM, the IC50 (HT1197) was > 2000 nM and the IC50 (HuO9) was 298 nM. For the same compound, the IC50 (KYSE-140) was 130 nM, the IC50 (KYSE-450) was 1050 nM and the IC50 (KYSE-520 cell line) was 826 nM. For the same compound, the IC50 (KYSE-70 cell line) was > 2000 nM, the IC50 (LU-99A) was > 2000 nM and the IC50 (MOLT-13) was 463 nM. For the same compound, the IC50 (NB17) was 158 nM, the IC50 (NCI-H2087) was > 2000 nM and the IC50 (NCI-H727) was 698 nM. It also gave an IC50 (P12-Ichikawa) of 43.2 nM, an IC50 (PC-14) of 417 nM and an IC50 (PFSK-1) of 411 nM. The IC50 (RERF-LC-MS) was 677 nM, the IC50 (RVH-421) was 1190 nM and the IC50 (SCC-4) was 1020 nM. For the same compound, the IC50 (SCC-9) was 1990 nM, the IC50 (SK-MEL-28) was > 2000 nM and the IC50 (SK-MEL-30) was > 2000 nM. For the same compound, the IC50 (SNU-423) was 535 nM, the IC50 (SNU-449) was > 2000 nM and the IC50 (SW13) was > 2000 nM. The IC50 (SW948) was > 2000 nM, the IC50 (8305C) was 789 nM and the IC50 (A-375) was 499 nM. The IC50 (A-431) was 925 nM, the IC50 (AU565) was 824 nM and the IC50 (BT-20) was 1720 nM. The IC50 (C-33-A) was 862 nM, the IC50 (CAL-27) was > 2000 nM and the IC50 (CAL-39) was > 2000 nM. For the same compound, the IC50 (CHL-1) was 526 nM.

In the case of `CC1=C(/C=C/C(C)=C/C=C/C(C)=C/C(=O)O)C(C)(C)CCC1` [TRETINOIN], the IC50 (COR-L23) is reported as > 10000 nM, the IC50 (CaR-1) is reported as > 10000 nM and the IC50 (DK-MG) is reported as > 10000 nM. For the same compound, the IC50 (EC-GI-10) was > 10000 nM, the IC50 (EW-24) was > 10000 nM and the IC50 (GP5d) was > 10000 nM. For the same compound, the IC50 (HCC38) was > 10000 nM, the IC50 (HCT-15) was > 10000 nM and the IC50 (HEC-1) was > 10000 nM. The IC50 (HOS) was > 10000 nM, the IC50 (HT1197) was > 10000 nM and the IC50 (HuO9) was > 10000 nM. For the same compound, the IC50 (KYSE-140) was > 10000 nM, the IC50 (KYSE-450) was > 10000 nM and the IC50 (KYSE-520 cell line) was > 10000 nM. For the same compound, the IC50 (KYSE-70 cell line) was > 10000 nM, the IC50 (LU-99A) was > 10000 nM and the IC50 (MOLT-13) was 1150 nM. The IC50 (NB17) was > 10000 nM, the IC50 (NCI-H2087) was > 10000 nM and the IC50 (NCI-H727) was > 10000 nM. The IC50 (P12-Ichikawa) was > 10000 nM, the IC50 (PC-14) was > 10000 nM and the IC50 (PFSK-1) was > 10000 nM. For the same compound, the IC50 (RERF-LC-MS) was > 10000 nM, the IC50 (RVH-421) was > 10000 nM and the IC50 (SCC-4) was > 10000 nM. For the same compound, the IC50 (SCC-9) was > 10000 nM, the IC50 (SK-MEL-28) was > 10000 nM and the IC50 (SK-MEL-30) was > 10000 nM. The IC50 (SNU-423) was > 10000 nM, the IC50 (SNU-449) was > 10000 nM and the IC50 (SW13) was > 10000 nM. The IC50 (SW948) was > 10000 nM, the IC50 (8305C) was > 10000 nM and the IC50 (A-375) was > 10000 nM. The IC50 (A-431) was > 10000 nM, the IC50 (AU565) was > 10000 nM and the IC50 (BT-20) was > 10000 nM. The IC50 (C-33-A) was > 10000 nM, the IC50 (CAL-27) was > 10000 nM and the IC50 (CAL-39) was > 10000 nM. The IC50 (CHL-1) was > 10000 nM.
